This assay deals with T1, FLT3 kinase (Homo sapiens, UniProt P36888).
T1 construct: purchased Invitrogen
T1 sequence (P36888 27-993): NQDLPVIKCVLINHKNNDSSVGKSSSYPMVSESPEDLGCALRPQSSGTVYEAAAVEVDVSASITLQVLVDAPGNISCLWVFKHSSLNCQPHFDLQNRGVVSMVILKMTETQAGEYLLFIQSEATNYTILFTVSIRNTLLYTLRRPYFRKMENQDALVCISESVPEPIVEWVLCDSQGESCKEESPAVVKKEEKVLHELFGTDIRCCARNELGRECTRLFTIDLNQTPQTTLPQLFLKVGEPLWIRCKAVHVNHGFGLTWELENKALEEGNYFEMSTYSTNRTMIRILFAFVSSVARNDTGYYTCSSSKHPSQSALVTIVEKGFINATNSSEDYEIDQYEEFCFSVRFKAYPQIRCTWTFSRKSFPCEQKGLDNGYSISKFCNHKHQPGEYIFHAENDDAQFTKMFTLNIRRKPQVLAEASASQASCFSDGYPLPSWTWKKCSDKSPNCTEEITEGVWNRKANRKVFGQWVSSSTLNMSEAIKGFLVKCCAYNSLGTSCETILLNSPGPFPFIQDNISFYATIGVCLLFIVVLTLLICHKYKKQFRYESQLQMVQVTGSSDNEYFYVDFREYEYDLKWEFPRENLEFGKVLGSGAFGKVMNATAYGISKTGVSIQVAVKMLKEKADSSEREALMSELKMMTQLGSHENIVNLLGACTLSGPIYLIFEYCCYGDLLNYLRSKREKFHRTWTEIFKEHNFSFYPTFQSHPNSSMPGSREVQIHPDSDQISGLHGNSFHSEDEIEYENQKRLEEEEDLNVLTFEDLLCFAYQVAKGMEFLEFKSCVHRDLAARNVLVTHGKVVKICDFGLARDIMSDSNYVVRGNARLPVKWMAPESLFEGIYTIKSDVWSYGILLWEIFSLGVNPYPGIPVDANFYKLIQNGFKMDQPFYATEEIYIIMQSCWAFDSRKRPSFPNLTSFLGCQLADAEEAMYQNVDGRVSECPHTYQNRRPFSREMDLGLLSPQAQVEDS
Put plainly: Mechanism of inhibition (pre-incubation time and ATP concentration), FLT3. The format is biochemical. As to the method:
Compound 13a was pre-incubated with the FLT3 kinase at 1, 3, 5, 10, 20, 30, 50, and 90 minutes. After the pre-incubation, IC50 values at each incubation interval was determined according to the procedure outlined in section 4.3. In a separate experiment, compound 13a was pre-incubated with the FLT3 kinase for 60 minutes. […] To determine IC50 values at each concentration of ATP, the same procedure was followed as outlined in section S10.
S10. Biochemical Inhibition Assay:1,2 Kinase activity was measured in a microfluidics assay that monitors the separation of a phosphorylated product from substrate. The assay was run using a 12-sipper chip on a Caliper EZ Reader II (PerkinElmer®, Walthman, USA) with separation buffer (100 mM HEPES, 10 mM EDTA, 0.015% Brij-35, 0.1% CR-3 [PerkinElmer®, Walthman, USA]). In 96-well polypropylene plates (Greiner, Frickenhausen, Germany) compound stocks (20 mM in DMSO) were diluted into kinase buffer (50 mM HEPES, 0.075% […]
dilutions (2 mM–6.32 nM). After, 1 μL was transferred into a 384-well polypropylene assay plate (Greiner, Frickenhausen, Germany). The FLT3 enzyme (Invitrogen™, Grand Island, USA) was diluted in kinase buffer to a concentration of 2 nM and 5 µL of the enzyme mixture was transferred to the assay plate. The inhibitors/FLT3 enzyme were incubated for 60 minutes with minor shaking. A substrate mix was prepared containing ATP (Ambresco®, Solon, USA) and 5FAM tagged FLT3 peptide (peptide #22, 5’ FAM-EPLYWSFPA, PerkinElmer®, Walthman, USA) dissolved in kinase buffer, and 5 µL of the substrate mix was added to the assay plate.
Running concentrations were as follows: ATP (190 µM), peptide (1.5 µM), compound 12-point ½log dilutions (0.2 mM–0.632 nM). For positive control, no inhibitor was added. For negative control, no enzyme was added. For running control, quizartinib was utilized. The plate was run until 10-20% conversion based on the positive control wells. The following separation conditions were utilized: upstream voltage -500V; downstream voltage, -1900V; chip pressure - 0.8. Percent inhibition was measured for each well comparing starting peptide to phosphorylated product peaks relative to the baseline. Dose response curves, spanning the IC50 dose, were generated in GraphPad Prisim 6 and fit to an exponential one-phase decay line and IC50 values were obtained from the half-life value of the curve. IC50 values were generated in duplicate and error was calculated from the standard deviation between values.
S11. Mechanism of Inhibition Procedure: Compound 13a was pre-incubated with the FLT3 kinase at 1, 3, 5, 10, 20, 30, 50, and 90 minutes. After the pre -incubation, IC50 values at each incubation interval was determined according to the procedure outlined in section 4.3. […]

On to `Cn1nc(C(C)(C)C)cc1NC(=O)Cc1ccc(Nc2cc(Nc3ccc(S(C)(=O)=O)cc3)ncn2)cc1` [13a, 2-(4-(6-(4-(Methylsulfonyl)phenylamino)pyrimidin-4-ylamino)phenyl)-N-(3-tert-butyl-1-methyl-1H-pyrazol-5-yl)acetamide], for which, under “5-160 µM ATP, 60 minutes pre-incubation, p > 0.05”, the “effect of an increase in ATP concentration on FLT3 IC50” value is “did not cause a statistically significant increase”. In addition, the mechanism of inhibition entry (from pre-incubation and ATP variation studies) is “non-competitive, Type-II kinase inhibitor”. Further, the “change of FLT3 IC50 from no incubation to a 90-minute pre-incubation” value (p < 0.05) is “statistically significant decrease”. Moreover, the “pre-incubation required to reach maximal inhibition of the FLT3 kinase” value (pre-incubation 1-90 minutes) is listed as “approximately 60 minutes”.

Source of the values: publication PMC5829162, “Rational Design, Synthesis and Biological Evaluation of Pyrimidine-4,6-diamine derivatives as Type-II inhibitors of FLT3 Selective Against c-KIT” (Scientific Reports, 2018).
